Experimental data as given in PubChem BioAssay AID200 (DTP/NCI, 2004).
Where “and” joins values, the source holds several entries; their conditions need not be identical. Identical values can stand only once. Inconclusive results and toxic doses are left out.

Test system: B6C3F1 mice, B16 melanoma ip, median survival T/C
Test: NCI In Vivo Anticancer Drug Screen. Data for tumor model B16 Melanoma (intraperitoneal) in B6C3F1 mice
Settings: endpoint: median survival time, higher = longer survival
In short: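 Tumor-bearing mice received test compound; a separate group got vehicle only. Survival was then compared, with results reported as treated over control.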

CC(=O)OC1C(O)C(C)OC(OC2C(OC(=O)C3CCC4C(C3)OC3(CC(OC(=O)/C=C/c5ccccc5)C(C)CO3)C43CO3)OC(C)C(O)C2OC(C)=O)C1O (stereo unspecified)
T/C (dose: 0.38 mg/kg/injection, schedule: Q03HX024 (ip), vehicle: other): 111 % of control
T/C (dose: 0.75 mg/kg/injection, schedule: Q03HX024 (ip), vehicle: other): 120 % of control
T/C (dose: 0.9 mg/kg/injection, schedule: Q01DX005 (iv), vehicle: other): 111 % of control
T/C (dose: 1.0 mg/kg/injection, schedule: Q01DX009 (ip), vehicle: distilled water + alcohol): 122 % of control
T/C (dose: 1.0 mg/kg/injection, schedule: Q01DX009 (ip), vehicle: other): 120 % of control and 122 % of control
T/C (dose: 1.0 mg/kg/injection, schedule: Q01DX009 (ip), vehicle: saline + Tween-80 + alcohol): 116 % of control
T/C (dose: 1.0 mg/kg/injection, schedule: Q01DX009 (ip), vehicle: saline + alcohol): 110 % of control and 115 % of control
T/C (dose: 1.13 mg/kg/injection, schedule: Q03HX008 (ip), vehicle: other): 123 % of control
T/C (dose: 1.8 mg/kg/injection, schedule: Q01DX005 (iv), vehicle: other): 103 % of control
T/C (dose: 2.0 mg/kg/injection, schedule: Q01DX009 (ip), vehicle: distilled water + alcohol): 158 % of control
T/C (dose: 2.0 mg/kg/injection, schedule: Q01DX009 (ip), vehicle: other): 152 % of control
T/C (dose: 2.0 mg/kg/injection, schedule: Q01DX009 (ip), vehicle: saline + Tween-80 + alcohol): 157 % of control
T/C (dose: 2.25 mg/kg/injection, schedule: Q01DX001 (iv), vehicle: other): 114 % of control
T/C (dose: 2.25 mg/kg/injection, schedule: Q03HX008 (ip), vehicle: other): 119 % of control
T/C (dose: 3.0 mg/kg/injection, schedule: Q04DX003 (ip), vehicle: other): 122 % of control
T/C (dose: 3.6 mg/kg/injection, schedule: Q01DX005 (iv), vehicle: other): 107 % of control
T/C (dose: 4.0 mg/kg/injection, schedule: Q01DX009 (ip), vehicle: distilled water + alcohol): 184 % of control
T/C (dose: 4.0 mg/kg/injection, schedule: Q01DX009 (ip), vehicle: other): 175 % of control
T/C (dose: 4.0 mg/kg/injection, schedule: Q01DX009 (ip), vehicle: saline + Tween-80 + alcohol): 185 % of control
T/C (dose: 4.0 mg/kg/injection, schedule: Q01DX009 (ip), vehicle: saline): 163 % of control
T/C (dose: 4.0 mg/kg/injection, schedule: Q01DX009 (oral), vehicle: other): 102 % of control
T/C (dose: 4.0 mg/kg/injection, schedule: Q01DX009 (sc), vehicle: other): 108 % of control
T/C (dose: 4.5 mg/kg/injection, schedule: Q01DX001 (ip), vehicle: other): 117 % of control
T/C (dose: 4.5 mg/kg/injection, schedule: Q01DX001 (iv), vehicle: other): 105 % of control
T/C (dose: 7.2 mg/kg/injection, schedule: Q01DX005 (iv), vehicle: other): 119 % of control
T/C (dose: 8.0 mg/kg/injection, schedule: Q01DX009 (ip), vehicle: distilled water + alcohol): 176 % of control
T/C (dose: 8.0 mg/kg/injection, schedule: Q01DX009 (ip), vehicle: other): 158 % of control and 174 % of control
T/C (dose: 8.0 mg/kg/injection, schedule: Q01DX009 (ip), vehicle: saline + Tween-80 + alcohol): 182 % of control
T/C (dose: 8.0 mg/kg/injection, schedule: Q01DX009 (ip), vehicle: saline): 161 % of control
T/C (dose: 8.0 mg/kg/injection, schedule: Q01DX009 (oral), vehicle: other): 104 % of control
T/C (dose: 8.0 mg/kg/injection, schedule: Q01DX009 (sc), vehicle: other): 106 % of control
T/C (dose: 8.0 mg/kg/injection, schedule: Q02DX005 (ip), vehicle: saline + Tween-80 + alcohol): 158 % of control
T/C (dose: 9.0 mg/kg/injection, schedule: Q01DX001 (ip), vehicle: other): 114 % of control
T/C (dose: 9.0 mg/kg/injection, schedule: Q01DX001 (iv), vehicle: other): 111 % of control
T/C (dose: 12.0 mg/kg/injection, schedule: Q04DX003 (ip), vehicle: saline + alcohol): 124 % of control
T/C (dose: 14.4 mg/kg/injection, schedule: Q01DX005 (ip), vehicle: other): 160 % of control
T/C (dose: 14.4 mg/kg/injection, schedule: Q01DX005 (iv), vehicle: other): 113 % of control
T/C (dose: 16.0 mg/kg/injection, schedule: Q01DX009 (ip), vehicle: distilled water + alcohol): 150 % of control
T/C (dose: 16.0 mg/kg/injection, schedule: Q01DX009 (ip), vehicle: other): 177 % of control and 188 % of control
T/C (dose: 16.0 mg/kg/injection, schedule: Q01DX009 (ip), vehicle: saline + Tween-80 + alcohol): 179 % of control
T/C (dose: 16.0 mg/kg/injection, schedule: Q01DX009 (oral), vehicle: other): 102 % of control
T/C (dose: 16.0 mg/kg/injection, schedule: Q01DX009 (sc), vehicle: other): 114 % of control
T/C (dose: 16.0 mg/kg/injection, schedule: Q02DX005 (ip), vehicle: saline + Tween-80 + alcohol): 166 % of control
T/C (dose: 16.0 mg/kg/injection, schedule: Q02DX005 (ip), vehicle: saline + alcohol): 155 % of control
T/C (dose: 18.0 mg/kg/injection, schedule: Q01DX001 (ip), vehicle: other): 120 % of control
T/C (dose: 18.0 mg/kg/injection, schedule: Q01DX001 (iv), vehicle: other): 117 % of control
T/C (dose: 32.0 mg/kg/injection, schedule: Q01DX009 (oral), vehicle: other): 101 % of control
T/C (dose: 32.0 mg/kg/injection, schedule: Q01DX009 (sc), vehicle: other): 112 % of control
T/C (dose: 32.0 mg/kg/injection, schedule: Q02DX005 (ip), vehicle: saline + alcohol): 154 % of control
T/C (dose: 36.0 mg/kg/injection, schedule: Q01DX001 (ip), vehicle: other): 119 % of control
T/C (dose: 96.0 mg/kg/injection, schedule: Q04DX003 (ip), vehicle: saline + Tween-80 + alcohol): 94 % of control
